In patent US6331555A, “Treatment of platelet derived growth factor related disorders such as cancers” (priority 1999, dated 2001):
In brackets after ≈: the same amount, converted by molar mass. Entries after “also recorded” stand apart in the source; their conditions may differ.

How the values were obtained:
in vivo [1] = test: in vivo; parameters: species or system rat
Procedure: (§1) Plasma was prepared and frozen in liquid nitrogen. Tissues and organs were resected and immediately frozen in liquid nitrogen. After the addition of an internal standard, plasma samples were acidified with HCl and extracted with acetonitrile. The acetonitrile fraction was evaporated to dryness in a vacuum centrifuge with heating and redissolved in methanol. Tissue and organ samples were homogenized according to the weight ratio of 1:5 (w:v) in 50 mM Tris-HCl, pH 7.4, at 20,000 rev/min, using a tissue homogenizer (Brinkmann Polytron Model PT3000). After the addition of an internal standard, the homogenate was acidified with HCl and then extracted with acetonitrile. The acetonitrile fraction was then extracted with an equal volume of diethyl ether. The ether fraction was evaporated to dryness in a vacuum centrifuge with heating and redissolved in methanol.
Samples for HPLC analysis were injected onto a Hewlett Packard Hypersil 5-μm C18 cartridge column (100×4.6 mm). The mobile phase was methanol:35 mM KH2 PO4 (pH 4.5) 55:45 containing 4 mM triethylamine. The flow rate was 1.2 mL/min. The compounds were monitored by UV absorption at 254 nm using a Hewlett-Packard diode-array detector (HP Model 1090). Plasma and tissue concentrations were determined from standard curves using peak area for quantitation. […] The internal standard used was 5-methyl-pyrazole-4-carboxylic acid-(4-trifluoromethyl)-anilide.
(§2) Table XXII. […] Plasma and brain samples were prepared and analyzed by HPLC as described in Appendix 6. All results were calculated by the method of internal standardization. NT= not tested, ND= not detected.

C6 cells = test: Soft agar assay (SAA); type: cell-based; conditions: Rattus norvegicus, PDGF-R expression ++
Procedure: (§3) After a 2 to 3 week incubation at 37° C., colonies larger than 50 μm were quantified using an Omnicon 3800 Tumor Colony counter.
(§4) PDGF-R expression was measured qualitatively using a western blot.

SF767T cells = test: Soft agar assay (SAA); type: cell-based; conditions: Homo sapiens; PDGF-R expression ++
Procedure: as §3, §4

SKOV-3 cells = test: Soft agar assay (SAA); type: cell-based; conditions: Homo sapiens, SK-OV-3; PDGF-R expression -
Procedure: as §3, §4

SKOV-3T cells = test: Soft agar assay (SAA); type: cell-based; conditions: Homo sapiens; PDGF-R expression ++
Procedure: as §3, §4

D1B leukemia = test: SC syngeneic leukemia model in mice; type: in vivo, murine; conditions: DBA/2, 20 mg/kg/day, day 22
Procedure: Cell lines were grown in appropriate medium (see Appendix 1). Cells were harvested at or near confluency with 0.05% Trypsin-EDTA and pelleted at 450×g for 10 min. Pellets were resuspended in sterile PBS or media (without FBS) to a particular concentration and the cells were implanted into the hindflank of mice. Tumor growth was measured over 3 to 6 weeks using venier calipers. Tumor volumes were calculated as a product of length×width×height unless otherwise indicated. P values were calculated using the Students' t-test.

[2] = type: in vivo, mouse; conditions: IP A10 40 mg/kg single dose
Procedure: as §1
Samples for HPLC analysis were injected onto a Hewlett Packard Hypersil 5-μm C18 cartridge column (100×4.6 mm). […] The compounds were monitored by UV absorption at 254 nm using a Hewlett-Packard diode-array detector (HP Model 1090). Plasma and tissue concentrations were determined from standard curves using peak area for quantitation. […]
as §2

[3] = test system: epidermal growth factor (EGF) receptor; conditions: listed as leflunomide; cited from earlier work
[4] = test system: NIH3T3 cells overexpressing the human PDGF-b receptor; test: PDGF-stimulated cell cycle progression, flow cytometry; type: cell-based, mouse
Procedure: NIH3T3 mouse fibroblasts overexpressing the human PDGF-β receptor were seeded in DMEM supplemented with 10% CS and 2 mM GLN. Cells were grown to about 80% confluence and then treated overnight in serum-free medium (DMEM, 2 mM GLN, 2 mM NEAA, 2 mM NaPyr, and 2 mM HEPES). […] Cells were then collected, strained and analyzed by flow cytometry for DNA content.
The percentage of cells in the S phase of the cell cycle was determined by flow cytometry.
The cells were analyzed for DNA content by flow cytometry.

physchem = test: physchem
Source text: PBTE consists of a solution of 3% w/v benzyl alcohol, 8% w/v polysorbate 80, and 65% w/v polyethylene glycol (MW=300 daltons) in absolute ethanol. PBTE:D5W consists of PBTE diluted 1:1 in a solution of 5% dextrose in water. […] The solubility of the other compounds described herein can be obtained using standard techniques.

in vivo [5] = conditions: mouse, ip
Procedure: The LD50 was calculated from a plot of % mortality versus dose (log M) using a four parameter logistic equation.

[6] = test system: ovarian carcinoma primary tumor cells; test: Growth of primary tumor cells from ovarian carcinoma patients; type: cell-based, human; parameters: tumor cell growth: dose or concentration left out as unconfirmed
Procedure: Viable tumors were placed into medium by the pathologist at the referring institution immediately after surgery, and shipped to Oncotech by overnight delivery. As soon as a tumor was received, a portion was fixed in formalin for sectioning and the remainder trimmed of necrotic, connective and adipose tissues. All tumor manipulations were performed aseptically. The remaining tumor was placed into a Petri dish containing 5 mL of medium (RPMI 1640 supplemented with 10% FBS, 100 IU/mL penicillin, […] streptomycin and L-glutamine) and disaggregated mechanically with scissors into pieces 2 mm or smaller. […]
After enzymatic dispersion into a near single-cell suspension, tumor cells were filtered through nylon mesh, washed in medium, suspended in soft agarose (0.12%) and plated at approximately 20,000 cells per well onto an agarose underlayer (0.4%) in 24-well plates. […] After the appropriate labeling period, tissue culture plates were heated at 60° C. to melt the agarose, the cells harvested with a micro-harvester onto glass fiber filters and the radioactivity determined. Percent inhibition (PCI) was determined using the formula: PCI=1-(CPM treatment group […] CPM control group). Determinations of control group proliferation were performed in quadruplicate, while treatment group proliferation was determined in triplicate. […]

Which results are given for Cc1oncc1C(=O)Nc1ccc(C(F)(F)F)cc1 [Compound A10, 5-methylisoxazole-4 carboxylic acid-(4-trifluromethyl)-anilide]?
time detected in plasma (in vivo [1]; IP A10 80 mg/kg single dose): up to 8 hr; time by which A10 converted to B11 (in vivo [1]; IP A10 80 mg/kg, first time point analyzed): ≤ 2 h; Cmax (in vivo [1]; rat, plasma, ip, 80 mg/kg): 5000 ng/mL; IC50 (C6 cells): 400 nM; IC50 (SF767T cells): 500 to 2000 nM; IC50 (SKOV-3 cells): 6.3 µM; IC50 (SKOV-3T cells): 300 nM; % Inhibition (D1B leukemia): 95%; time by which A10 completely converted and undetectable [2]: ≤ 1 h; autophosphorylation of the EGF receptor [3]: dose dependently, inhibited; also recorded: inhibit EGF induced EGF receptor autophosphorylation; number of cells progressing to the S phase in response to PDGF [4]: dose-dependent decrease in the number of cells progressing to the S phase; solubility (physchem; pbte, organic solvent or mixture): ~60 mg/mL (≈ 222 mM); solubility (physchem; pbte:d5w): ~5 mg/mL (≈ 18.5 mM); solubility in water (physchem; water): not very soluble in water; LD50 (in vivo [5]): 145 mg/kg; tumor cell growth [6]: tumor cell growth decreased for both types of tumors; IC50 ([6]; Homo sapiens, range over six patients, read-out: IC50, ovarian tumors): 20 to 140 µM
